Measured values published in patent US5646159A (priority 1994, dated 1997).
Counter-ions that a name gives are not always drawn.

Legend:
L-1210 leukemia = experiment: L-1210 Life Prolongation Assay; assay type: in vivo, mice
Description: L-1210 Life Prolongation Assay^a
^a Intraperitoneal transplants.
^b Q04DX02 = ip injection on days 1 and 5.
Q04HX02 = iv drug dosing on hours 1 and 5.
^c % TC = (median survival time of treated/control animals) ×
^d log of initial tumor cell population minus log of tumor cell
population at the end of treatment. […]

[1] = Toxicity by weight loss in test animals (Protocol 4; toxic = weight loss of ≥4.0 grams); toxic dose; assay type: in vivo, mice
Description: By "non-toxic", as used herein with reference to the ester compounds of the present invention, is meant a compound which is not toxic according to Protocal 4, section 4.301(b)(3) where toxicity is defined as a weight loss of ≥4.0 grams as reported in R. I. Geran, N. H. Greenberg, M. M. MacDonald, A. M. Schumacher and B. J. Abbott, Cancer Chemotherapy Reports, Part 3, Vol. 3, No. 2, September 1972.

topoisomerase I = target: T1, topoisomerase I (Bos taurus, UniProt F1MN93); experiment: Cleavable complex assay (topoisomerase I inhibition); assay type: biochemical; conditions: S.E. in own column, read-out: IC50, minimum drug concentration that inhibited the cleavable complex formation by 50%
T1 sequence (F1MN93 1-767): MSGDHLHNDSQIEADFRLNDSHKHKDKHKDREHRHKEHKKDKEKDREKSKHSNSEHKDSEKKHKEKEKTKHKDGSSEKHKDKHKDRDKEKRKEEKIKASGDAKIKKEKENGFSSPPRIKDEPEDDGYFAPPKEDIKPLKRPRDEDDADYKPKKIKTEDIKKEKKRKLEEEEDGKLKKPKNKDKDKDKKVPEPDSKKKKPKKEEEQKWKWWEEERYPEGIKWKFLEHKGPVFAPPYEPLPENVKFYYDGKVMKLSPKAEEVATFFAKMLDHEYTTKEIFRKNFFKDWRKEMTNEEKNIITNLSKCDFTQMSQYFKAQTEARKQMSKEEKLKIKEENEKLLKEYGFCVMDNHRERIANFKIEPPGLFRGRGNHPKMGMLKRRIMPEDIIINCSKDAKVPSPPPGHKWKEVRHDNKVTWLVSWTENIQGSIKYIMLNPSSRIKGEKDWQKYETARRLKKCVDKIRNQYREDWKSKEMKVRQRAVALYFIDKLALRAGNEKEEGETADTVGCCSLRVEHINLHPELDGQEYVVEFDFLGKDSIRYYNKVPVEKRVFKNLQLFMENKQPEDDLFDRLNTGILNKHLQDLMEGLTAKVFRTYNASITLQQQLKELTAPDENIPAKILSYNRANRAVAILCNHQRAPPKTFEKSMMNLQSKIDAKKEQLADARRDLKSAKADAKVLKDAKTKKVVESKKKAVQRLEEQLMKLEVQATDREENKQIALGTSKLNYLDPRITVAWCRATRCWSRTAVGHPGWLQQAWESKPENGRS
Description: This relaxation is brought about by breakage of one of the DNA strands in the formation of a covalent topoisomerase I-DNA complex.

leukemia and tumor = conditions: Wall 1969; cited from earlier work
[2] = background statement; cited from earlier work
P388 leukemia = conditions: Wall 1983; cited from earlier work
[3] = physiological pH, 7.2; Burke et al. 1993; cited from earlier work
[4] = at highest active dose, ip, Q04DX02 (days 1 and 5)
[5] = at highest active dose, iv, Q04HX02 (hours 1 and 5)
[6] = ip, Q04DX02 (ip injection on days 1 and 5), intraperitoneal transplants
[7] = iv, Q04HX02 (iv drug dosing on hours 1 and 5), intraperitoneal transplants

## CCC1(OC(=O)CN)C(=O)OCc2c1cc1n(c2=O)Cc2cc3c(N)cccc3nc2-1 (racemic) [9-amino-20-glycinyl-(20RS)-CPT.HCl, 9-amino-20-O-glycinyl-(20RS)-CPT·HCl]
L-1210 leukemia; [4]
  % T/C = (median survival time of treated/control animals) × 100: 132%
L-1210 leukemia; [5]
  % T/C = (median survival time of treated/control animals) × 100: 168%
L-1210 leukemia; mouse, in vivo
  highest active dose: 5 mg/kg
L-1210 leukemia; mouse, in vivo, ip
  KE, log of initial tumor cell population minus log of tumor cell population at the end of treatment: -1.00
  active dose range: 10 mg/kg
  cures: 0
  highest active dose: 10 mg/kg
L-1210 leukemia; mouse, in vivo, iv
  KE, log of initial tumor cell population minus log of tumor cell population at the end of treatment: 1.67
  active dose range: 2.5 to 5.0 mg/kg
  cures: 1/6
[1]; ip, Q04DX02 (days 1 and 5)
  toxic dose (not toxic at dose): NT^e at 10
[1]; iv, Q04HX02 (hours 1 and 5)
  toxic dose (not toxic at dose): NT at 5

## CCC1(O)C(=O)OCc2c1cc1n(c2=O)Cc2cc3cc4c(cc3nc2-1)OCO4 (racemic) [10,11-(methylenedioxy)-(20RS)-CPT, 10,11-methylenedioxy-20(RS)-camptothecin, reference compound]
L-1210 leukemia; [4]
  % T/C = (median survival time of treated/control animals) × 100: 325%
L-1210 leukemia; ip, Q04DX02 (days 1 and 5)
  KE, log of initial tumor cell population minus log of tumor cell population at the end of treatment: 5.97
  active dose range: 2 to 4 mg/kg
  cures: 2/6
L-1210 leukemia; [6]
  highest active dose: 2 mg/kg
[1]; ip, Q04DX02 (days 1 and 5)
  toxic dose: 8.0 mg/kg

## CCC1(OC(=O)CN)C(=O)OCc2c1cc1n(c2=O)Cc2cc3cc4c(cc3nc2-1)OCO4 (racemic) [10,11-MDO-20-O-glycinyl-(20RS)-CPT·HCl]
L-1210 leukemia; iv
  % T/C = (median survival time of treated/control animals) × 100: 236%
L-1210 leukemia; iv, Q04HX02 (hours 1 and 5)
  KE, log of initial tumor cell population minus log of tumor cell population at the end of treatment: 5.97
  active dose range: 1.25 to 20 mg/kg
  cures: 3/6
L-1210 leukemia; [7]
  highest active dose: 10 mg/kg
[1]; administered at 20 mg/kg
  toxicity in words: non-toxic
[1]; ester vs parent 10,11-methylenedioxy-20(RS)-camptothecin
  greater amount of the ester that can be administered than the parent compound: 10 fold
[1]; iv, Q04HX02 (hours 1 and 5)
  toxic dose (not toxic at dose): NT at 20
Topoisomerase I
  IC50: 430 nM

## CCC1(OC(=O)CN)C(=O)OCc2c1cc1n(c2=O)Cc2cc3cc(N)ccc3nc2-1 (racemic) [10-amino-20-glycinyl-(20RS)-CPT.HCl, 10-amino-20-O-glycinyl-(20RS)-CPT·HCl]
L-1210 leukemia; [5]
  % T/C = (median survival time of treated/control animals) × 100: 225%
L-1210 leukemia; iv, Q04HX02 (hours 1 and 5)
  KE, log of initial tumor cell population minus log of tumor cell population at the end of treatment: > 5.97
  active dose range: 1.25 to 20 mg/kg
  cures: 0
L-1210 leukemia; [7]
  highest active dose: 20 mg/kg
[1]; iv, Q04HX02 (hours 1 and 5)
  toxic dose (not toxic at dose): NT at 20

## CCC1(O)C(=O)OCc2c1cc1n(c2=O)Cc2cc3cc(N)ccc3nc2-1 (racemic) [10-amino-(20RS)-CPT, reference compound]
L-1210 leukemia; ip
  % T/C = (median survival time of treated/control animals) × 100: 365%
L-1210 leukemia; ip, Q04DX02 (days 1 and 5)
  KE, log of initial tumor cell population minus log of tumor cell population at the end of treatment: 5.97
  active dose range: 1.35 to 3.74 mg/kg
  cures: 3/6
L-1210 leukemia; [6]
  highest active dose: 3.75 mg/kg
[1]; ip, Q04DX02 (days 1 and 5)
  toxic dose: 6.25 mg/kg

## CC[C@@]1(O)C(=O)OCc2c1cc1n(c2=O)Cc2cc3c(N)cccc3nc2-1 [9-amino-(20S)-CPT, reference compound]
L-1210 leukemia; ip, Q04DX02 (days 1 and 5)
  KE, log of initial tumor cell population minus log of tumor cell population at the end of treatment: 4.8
  active dose range: 5.3 to 12 mg/kg
  cures: 1/6
L-1210 leukemia; [6]
  highest active dose: 12 mg/kg
L-1210 leukemia; mouse, in vivo, ip
  % T/C = (median survival time of treated/control animals) × 100: 250%
[1]; ip, Q04DX02 (days 1 and 5)
  toxic dose: 10 mg/kg

## CCC1C(=O)OCc2c1cc1n(c2=O)Cc2cc3ccccc3nc2-1 (centres unmarked) [20-desoxy-CPT]
Leukemia and tumor
  antileukemia and antitumor activity: inactive

## CCC1(OC(C)=O)C(=O)OCc2c1cc1n(c2=O)Cc2cc3ccccc3nc2-1 (stereo not drawn) [CPT-20α-acetate]
Leukemia and tumor
  antileukemia and antitumor activity: inactive

## CC[C@@]1(O)C(=O)OCc2c1cc1n(c2=O)Cc2cc3ccccc3nc2-1 [camptothecin, Camptothecin]
[2]
  water solubility: water insoluble
P388 leukemia
  activity in the P388 leukemia assay: High activity
[3]
  lactone ring opening: opens to a physiologically inactive open form
